The source of these data is patent US10800792B2, “Inhibitors of Bruton's tyrosine kinase and method of their use” (JANSSEN PHARMACEUTICA NV, priority 2015, dated 2020).

unphosphorylated-BTK kinase domain (UP-BTK), GST-tagged human BTK (389-659aa), sequence (Q06187 389-659): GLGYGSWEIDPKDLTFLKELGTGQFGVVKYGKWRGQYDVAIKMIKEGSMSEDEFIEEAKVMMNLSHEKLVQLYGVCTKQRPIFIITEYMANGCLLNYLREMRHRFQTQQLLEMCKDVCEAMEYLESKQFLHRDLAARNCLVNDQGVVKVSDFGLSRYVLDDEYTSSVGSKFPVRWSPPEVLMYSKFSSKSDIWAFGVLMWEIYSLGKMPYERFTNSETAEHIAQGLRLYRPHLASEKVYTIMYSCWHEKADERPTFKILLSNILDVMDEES

One assay addresses unphosphorylated-BTK kinase domain (UP-BTK), GST-tagged human BTK (389-659aa) (Homo sapiens (Human), UniProt Q06187). Description: BTK kinase Lanthascreen binding assay. As to conditions: pIC50 = negative log of the IC50 in molar; 60 minutes incubation, 50 nM Tracer 236. The procedure, abridged:
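Measures how well compounds compete with a fluorescence-labelled tracer for binding to BTK in its unphosphorylated state. IC50 values were fitted and expressed as pIC50 (negative logarithm of the molar IC50).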
In the case of `C=CC(=O)N1CCC[C@@H](NC(=O)c2sc3nccc4c3c2NC(=O)N4c2ccc(Oc3cccc4ccoc34)cc2C)C1` [Example 16, (R)—N-(1-Acryloylpiperidin-3-yl)-5-(4-(benzofuran-7-yloxy)-2-methylphenyl)-4-oxo-4,5-dihydro-3H-1-thia-3,5,8-triazaacenaphthylene-2-carboxamide], the “BTK_I_binding pIC50” value was determined as 7.3.
Consider `C=CC(=O)N1CC[C@@H](NC(=O)c2sc3nccc4c3c2NC(=O)N4c2ccc(Oc3c(F)cccc3F)cc2C)C1` [Example 17, (R)—N-(1-Acryloylpyrrolidin-3-yl)-5-(4-(2,6-difluorophenoxy)-2-methylphenyl)-4-oxo-4,5-dihydro-3H-1-thia-3,5,8-triazaacenaphthylene-2-carboxamide], for which the “BTK_I_binding pIC50” value worked out at 7.7.
With `C=CC(=O)N1CCC[C@@H](NC(=O)c2sc3nccc4c3c2NC(=O)N4c2ccc(Oc3ccccc3)cc2)C1` [Example 18, (R)—N-(1-Acryloylpiperidin-3-yl)-4-oxo-5-(4-phenoxyphenyl)-4,5-dihydro-3H-1-thia-3,5,8-triazaacenaphthylene-2-carboxamide], the “BTK_I_binding pIC50” value came to 8.2.
Regarding `C=CC(=O)N1CCC[C@@H](NC(=O)c2sc3nccc4c3c2NC(=O)N4c2c(C)cc(Oc3ccccc3)cc2F)C1` [Example 20, (R)—N-(1-Acryloylpiperidin-3-yl)-5-(2-fluoro-6-methyl-4-phenoxyphenyl)-4-oxo-4,5-dihydro-3H-1-thia-3,5,8-triazaacenaphthylene-2-carboxamide], the “BTK_I_binding pIC50” value is listed as 7.4.
For the compound `Cc1cc(Oc2ccccc2)ccc1N1C(=O)Nc2c(C(=O)N[C@@H]3CCCN(C(=O)/C(C#N)=C/C4(C)COC4)C3)sc3nccc1c23` [Example 21, (R,E)-N-(1-(2-cyano-3-(3-methyloxetan-3-yl)acryloyl)piperidin-3-yl)-5-(2-methyl-4-phenoxyphenyl)-4-oxo-4,5-dihydro-3H-1-thia-3,5,8-triazaacenaphthylene-2-carboxamide], the “BTK_I_binding pIC50” value worked out at 7.7.
Turning to `C=CC(=O)N1CC[C@@H](NC(=O)c2sc3nccc4c3c2NC(=O)N4c2ccc(Oc3cccc4ccoc34)cc2C)C1` [Example 22, (R)—N-(1-Acryloylpyrrolidin-3-yl)-5-(4-(benzofuran-7-yloxy)-2-methylphenyl)-4-oxo-4,5-dihydro-3H-1-thia-3,5,8-triazaacenaphthylene-2-carboxamide], the “BTK_I_binding pIC50” value came out at 7.4.
`Cc1cc(Oc2ccccc2)ccc1N1C(=O)Nc2c(C(=O)N[C@@H]3CCN(C(=O)/C=C/CO)C3)sc3nccc1c23` [Example 30, (R,E)-N-(1-(4-Hydroxybut-2-enoyl)pyrrolidin-3-yl)-5-(2-methyl-4-phenoxyphenyl)-4-oxo-4,5-dihydro-3H-1-thia-3,5,8-triazaacenaphthylene-2-carboxamide]: the “BTK_I_binding pIC50” value is 7.6.
On to `C=CC(=O)N1C[C@@H](F)[C@@H](NC(=O)c2sc3nccc4c3c2NC(=O)N4c2ccc(Oc3ccccc3)cc2C)C1` [Example 37, N-((3S,4R)-1-Acryloyl-4-fluoropyrrolidin-3-yl)-5-(2-methyl-4-phenoxyphenyl)-4-oxo-4,5-dihydro-3H-1-thia-3,5,8-triazaacenaphthylene-2-carboxamide], for which the “BTK_I_binding pIC50” value is reported as 7.6.
Consider `C=CC(=O)N1CC[C@@H](NC(=O)c2sc3nccc4c3c2NC(=O)N4c2ccc(OC3CCCCC3)cc2C)C1` [Example 39, (R)—N-(1-Acryloylpyrrolidin-3-yl)-5-(4-(cyclohexyloxy)-2-methylphenyl)-4-oxo-4,5-dihydro-3H-1-thia-3,5,8-triazaacenaphthylene-2-carboxamide], for which the “BTK_I_binding pIC50” value is 7.4.
Consider `COC(C)(C)/C=C(\C#N)C(=O)N1CCC[C@@H](NC(=O)c2sc3nccc4c3c2NC(=O)N4c2ccc(Oc3ccccc3)cc2C)C1` [Example 40, (R,E)-N-(1-(2-Cyano-4-methoxy-4-methylpent-2-enoyl)piperidin-3-yl)-5-(2-methyl-4-phenoxyphenyl)-4-oxo-4,5-dihydro-3H-1-thia-3,5,8-triazaacenaphthylene-2-carboxamide], for which the “BTK_I_binding pIC50” value stood at 7.6.

Still in this assay, the particulars now being: pIC50 = negative log of the IC50 in molar; 60 minutes incubation, 50 nM Tracer 236; read-out: BTK_I_binding pIC50 (converted).
For `C=CC(=O)N1CCC[C@@H](NC(=O)c2sc3nccc4c3c2NC(=O)N4c2ccc(Oc3ccccc3CC)cc2C)C1` [Example 19, (R)—N-(1-Acryloylpiperidin-3-yl)-5-(4-(2-ethylphenoxy)-2-methylphenyl)-4-oxo-4,5-dihydro-3H-1-thia-3,5,8-triazaacenaphthylene-2-carboxamide], the IC50 is 63.1 nM.
For `C=C(Cl)C(=O)N1CCC[C@@H](NC(=O)c2sc3nccc4c3c2NC(=O)N4c2ccc(Oc3ccccc3)cc2C)C1` [Example 26, (R)—N-(1-(2-Chloroacryloyl)piperidin-3-yl)-5-(2-methyl-4-phenoxyphenyl)-4-oxo-4,5-dihydro-3H-1-thia-3,5,8-triazaacenaphthylene-2-carboxamide], the IC50 was 50.1 nM.
The same measure, in the same setting: the same measure for `Cc1cc(Oc2ccccc2)ccc1N1C(=O)Nc2c(C(=O)N[C@@H]3CCCN(C(=O)/C=C/CN)C3)sc3nccc1c23` [Example 27, (R,E)-N-(1-(4-Aminobut-2-enoyl)piperidin-3-yl)-5-(2-methyl-4-phenoxyphenyl)-4-oxo-4,5-dihydro-3H-1-thia-3,5,8-triazaacenaphthylene-2-carboxamide]: 50.1 nM; for `Cc1cc(Oc2ccccc2)ccc1N1C(=O)Nc2c(C(=O)NC3COCCN(C#N)C3)sc3nccc1c23` (stereo not drawn) [Example 31, N-(4-Cyano-1,4-oxazepan-6-yl)-5-(2-methyl-4-phenoxyphenyl)-4-oxo-4,5-dihydro-3H-1-thia-3,5,8-triazaacenaphthylene-2-carboxamide]: 20 nM; for `C=CC(=O)N1CCC[C@@H](NC(=O)c2sc3nccc4c3c2NC(=O)N4c2ccc(OC3CCCCC3)cc2C)C1` [Example 32, (R)—N-(1-Acryloylpiperidin-3-yl)-5-(4-(cyclohexyloxy)-2-methylphenyl)-4-oxo-4,5-dihydro-3H-1-thia-3,5,8-triazaacenaphthylene-2-carboxamide]: 50.1 nM.
In the case of `C=CC(=O)N1CCC[C@@H](NC(=O)c2sc3nccc4c3c2NC(=O)N4c2ccc(OC(C)C)cc2C)C1` [Example 33, (R)—N-(1-Acryloylpiperidin-3-yl)-5-(4-isopropoxy-2-methylphenyl)-4-oxo-4,5-dihydro-3H-1-thia-3,5,8-triazaacenaphthylene-2-carboxamide], the IC50 was 31.6 nM.
For `C=CC(=O)N1C[C@H](NC(=O)c2sc3nccc4c3c2NC(=O)N4c2ccc(Oc3ccccc3)cc2C)[C@@H](F)C1` [Example 36, N-((3S,4S)-1-Acryloyl-4-fluoropyrrolidin-3-yl)-5-(2-methyl-4-phenoxyphenyl)-4-oxo-4,5-dihydro-3H-1-thia-3,5,8-triazaacenaphthylene-2-carboxamide], the IC50 was 20 nM.
The same measure, in the same setting: the same measure for `Cc1cc(Oc2ccccc2)ccc1N1C(=O)Nc2c(C(=O)N[C@@H]3CCCN(C(=O)/C(C#N)=[13CH]/C4CC4)C3)sc3nccc1c23` [Example 41, (R,E)-N-(1-(2-Cyano-3-^13C-cyclopropylacryloyl)piperidin-3-yl)-5-(2-methyl-4-phenoxyphenyl)-4-oxo-4,5-dihydro-3H-1-thia-3,5,8-triazaacenaphthylene-2-carboxamide]: 50.1 nM.
